Measured values reported in patent publication US20080009418A1, “Selective Inhibitors” (Alchemia LTD., priority 2004, published 2008).

How the values were obtained:
Human Melanocortin (MC4) = target: T1, Human Melanocortin (MC4) (Homo sapiens, UniProt P32245); test: Radioligand binding, human melanocortin MC4 membranes, FlashPlate, [125I]-NDP-αMSH; settings: compound at 10 μM; [125I]-NDP-αMSH
T1 construct: purchased Perkin Elmer Biosignal
Procedure, shortened: (§1)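 Cloned human receptor membranes were coated onto FlashPlate wells and incubated with radioligand and compound (added from a 0.5 mM DMSO daughter plate) for 1 hour at room temperature in the dark. Scintillation counting gave percent inhibition, with DMSO defining total and reference ligand defining non-specific binding.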

Human Melanocortin (MC3) = target: T2, Human Melanocortin (MC3) (Homo sapiens, UniProt P41968); test: Radioligand binding, human melanocortin MC3 membranes, FlashPlate, [125I]-NDP-αMSH; settings: compound at 10 μM; [125I]-NDP-αMSH
T2 construct: purchased Perkin Elmer Biosignal
Procedure, shortened: as §1

Mouse urotensin (mUR2) = target: T3, Mouse urotensin (mUR2) (Mus musculus, UniProt Q8VIH9); test: Radioligand binding, mouse urotensin mUR2 membranes, FlashPlate, [125I]-Urotensin II; settings: compound at 10 μM; [125I]-Urotensin II
T3 construct: purchased Perkin Elmer Biosignal
T3 sequence (Q8VIH9 1-385): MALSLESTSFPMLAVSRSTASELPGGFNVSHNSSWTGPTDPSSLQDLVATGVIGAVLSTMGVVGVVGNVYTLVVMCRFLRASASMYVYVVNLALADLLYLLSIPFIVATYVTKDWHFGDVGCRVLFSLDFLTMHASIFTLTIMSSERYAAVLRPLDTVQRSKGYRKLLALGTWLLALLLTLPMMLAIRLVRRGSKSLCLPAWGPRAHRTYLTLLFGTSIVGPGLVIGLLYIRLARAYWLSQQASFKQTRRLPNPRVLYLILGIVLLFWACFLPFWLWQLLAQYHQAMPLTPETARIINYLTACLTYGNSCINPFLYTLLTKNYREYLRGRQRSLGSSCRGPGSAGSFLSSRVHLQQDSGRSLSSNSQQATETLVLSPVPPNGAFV
Procedure, shortened: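 Cloned mouse urotensin (mUR2) receptor membranes from Perkin Elmer Biosignal were immobilized in FlashPlate microplates using a proprietary coating. Each well got 19.5 μl buffer, then 0.5 μl of DMSO, reference ligand, or compound. Adding 5 μl of [125I]-Urotensin II, diluted to 5× final concentration in binding buffer, started binding. Plates were sealed with TopSeal-A and incubated 1 hour at room temperature in the dark. Wells were counted for 30 seconds each on a TopCount after a 60-second delay, and percentage inhibition was calculated.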

Human opioid (ORL1) = target: T4, Human opioid (ORL1) (Homo sapiens, UniProt P41146); test: Radioligand binding, human opioid ORL1 membranes, FlashPlate, [125I]-Nociceptin; settings: compound at 10 μM; [125I]-Nociceptin
T4 construct: purchased Perkin Elmer Biosignal
Procedure, shortened: as §1

[1] = target: T5, Human neuropeptide Y (NPY-Y1) (Homo sapiens, UniProt P25929); test: Radioligand binding, human neuropeptide Y NPY-Y1 membranes, FlashPlate, [125I]-PYY; settings: compound at 10 μM; [125I]-PYY
T5 construct: purchased Perkin Elmer Biosignal
T5 sequence (P25929 1-384): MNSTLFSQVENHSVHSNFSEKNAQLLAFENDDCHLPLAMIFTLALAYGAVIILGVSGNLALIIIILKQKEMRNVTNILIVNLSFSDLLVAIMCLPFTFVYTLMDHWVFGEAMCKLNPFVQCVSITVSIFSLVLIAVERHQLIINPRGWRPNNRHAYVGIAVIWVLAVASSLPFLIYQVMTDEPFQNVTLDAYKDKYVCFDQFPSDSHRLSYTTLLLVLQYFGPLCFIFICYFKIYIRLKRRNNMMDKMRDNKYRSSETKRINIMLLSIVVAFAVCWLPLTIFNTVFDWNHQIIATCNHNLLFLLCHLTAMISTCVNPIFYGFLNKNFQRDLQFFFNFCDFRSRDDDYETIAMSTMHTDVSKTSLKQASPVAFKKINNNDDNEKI
Procedure, shortened: as §1

Human neurokinin (NK1) = target: T6, Human neurokinin (NK1) (Homo sapiens, UniProt P25103); test: Radioligand binding, human neurokinin NK1 membranes, filtration, [125I]-Substance P; settings: compound at 10 μM; [125I]-Substance P
T6 construct: purchased Perkin Elmer Biosignal
Procedure, shortened: (§2)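 Membranes from cloned human receptors were incubated with compound and radioligand for 1 hour at room temperature. Bound ligand was collected on 0.3% PEI-soaked filters, washed with cold 50 mM Tris-HCl pH 7.4, and counted by scintillation. Percent inhibition was computed against DMSO totals and reference-ligand nonspecific wells.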

Human melanocortin (MC5) = target: T7, Human melanocortin (MC5) (Homo sapiens, UniProt P33032); test: Radioligand binding, human melanocortin MC5 membranes, FlashPlate, [125I]-NDP-αMSH; settings: compound at 10 μM; [125I]-NDP-αMSH
T7 construct: purchased Perkin Elmer Biosignal
Procedure, shortened: as §1

Human μ-opioid (MOP) = target: T8, Human μ-opioid (MOP) (Homo sapiens, UniProt P35372); test: Radioligand binding, human μ-opioid (MOP) membranes, FlashPlate, [3H]-Naloxone; settings: compound at 10 μM; [3H]-Naloxone
T8 construct: purchased Perkin Elmer Biosignal
Procedure, shortened: as §1

[2] = target: T9, Human melanin-concentrating hormone (MCH1) (Homo sapiens, UniProt Q99705); test: Radioligand binding, human melanin-concentrating hormone MCH1 membranes, FlashPlate, [125I]-S36057; settings: compound at 10 μM; [125I]-S36057
T9 construct: purchased Perkin Elmer Biosignal
Procedure, shortened: as §1

Human κ-Opioid (KOP) = target: T10, Human κ-Opioid (KOP) (Homo sapiens, UniProt P41145); test: Radioligand binding, human κ-opioid (KOP) membranes, filtration, [3H]-Diprenorphine; settings: compound at 10 μM; [3H]-Diprenorphine
T10 construct: purchased Perkin Elmer Biosignal
Procedure, shortened: as §2

Human δ-opioid (DOP) = target: T11, Human δ-opioid (DOP) (Homo sapiens, UniProt P41143); test: Radioligand binding, human δ-opioid (DOP) membranes, FlashPlate, [3H]-Bremazocine; settings: compound at 10 μM; [3H]-Bremazocine
T11 construct: purchased Perkin Elmer Biosignal
Procedure, shortened: as §1

T1 sequence (P32245 whole entry): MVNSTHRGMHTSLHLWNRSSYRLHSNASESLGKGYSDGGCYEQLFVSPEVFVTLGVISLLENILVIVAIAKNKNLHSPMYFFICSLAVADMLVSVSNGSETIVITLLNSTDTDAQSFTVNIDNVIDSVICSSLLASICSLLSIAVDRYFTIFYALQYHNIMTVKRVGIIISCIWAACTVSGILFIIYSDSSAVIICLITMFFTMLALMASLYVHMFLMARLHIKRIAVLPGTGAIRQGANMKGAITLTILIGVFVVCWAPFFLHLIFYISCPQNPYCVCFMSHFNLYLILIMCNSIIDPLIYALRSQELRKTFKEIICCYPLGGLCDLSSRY
T11 sequence (P41143 whole entry): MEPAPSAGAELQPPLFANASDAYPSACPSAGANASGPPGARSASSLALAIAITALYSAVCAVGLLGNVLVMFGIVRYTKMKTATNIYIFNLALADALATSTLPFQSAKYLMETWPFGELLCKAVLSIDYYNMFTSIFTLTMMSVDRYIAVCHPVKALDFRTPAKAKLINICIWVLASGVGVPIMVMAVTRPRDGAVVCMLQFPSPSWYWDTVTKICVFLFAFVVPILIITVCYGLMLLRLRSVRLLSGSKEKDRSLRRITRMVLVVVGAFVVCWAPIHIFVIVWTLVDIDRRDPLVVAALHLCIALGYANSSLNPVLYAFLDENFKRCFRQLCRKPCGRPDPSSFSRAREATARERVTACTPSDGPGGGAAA
T8 sequence (P35372 whole entry): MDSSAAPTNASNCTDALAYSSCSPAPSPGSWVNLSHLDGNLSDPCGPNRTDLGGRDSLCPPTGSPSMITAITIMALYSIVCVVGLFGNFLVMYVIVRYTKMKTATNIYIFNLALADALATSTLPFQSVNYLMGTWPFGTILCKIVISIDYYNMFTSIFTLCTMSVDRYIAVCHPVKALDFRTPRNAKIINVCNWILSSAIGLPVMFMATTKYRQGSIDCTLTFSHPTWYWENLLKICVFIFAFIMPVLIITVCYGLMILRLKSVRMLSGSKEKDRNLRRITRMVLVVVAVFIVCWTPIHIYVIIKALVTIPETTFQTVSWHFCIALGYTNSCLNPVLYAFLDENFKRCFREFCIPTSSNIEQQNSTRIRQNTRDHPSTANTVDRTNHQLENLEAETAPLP
T2 sequence (P41968 whole entry): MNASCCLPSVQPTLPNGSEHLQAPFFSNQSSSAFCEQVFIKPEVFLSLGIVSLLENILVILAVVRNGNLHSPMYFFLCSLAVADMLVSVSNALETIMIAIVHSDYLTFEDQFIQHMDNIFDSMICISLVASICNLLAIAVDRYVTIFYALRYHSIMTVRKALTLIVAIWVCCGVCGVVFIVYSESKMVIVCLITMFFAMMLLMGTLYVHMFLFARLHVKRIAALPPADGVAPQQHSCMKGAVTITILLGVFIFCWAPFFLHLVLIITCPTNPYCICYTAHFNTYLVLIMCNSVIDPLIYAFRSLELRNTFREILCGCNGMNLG
T10 sequence (P41145 whole entry): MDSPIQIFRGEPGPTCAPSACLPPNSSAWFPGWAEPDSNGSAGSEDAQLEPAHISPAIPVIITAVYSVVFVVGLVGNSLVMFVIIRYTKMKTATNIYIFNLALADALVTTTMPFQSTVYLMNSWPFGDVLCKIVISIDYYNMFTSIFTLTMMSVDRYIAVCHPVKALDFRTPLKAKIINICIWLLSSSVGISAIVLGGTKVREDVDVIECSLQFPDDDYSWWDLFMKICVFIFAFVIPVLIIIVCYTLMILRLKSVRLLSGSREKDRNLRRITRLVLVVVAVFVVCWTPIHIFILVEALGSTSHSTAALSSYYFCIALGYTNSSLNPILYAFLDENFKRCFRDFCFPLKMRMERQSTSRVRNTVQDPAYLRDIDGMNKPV
T7 sequence (P33032 whole entry): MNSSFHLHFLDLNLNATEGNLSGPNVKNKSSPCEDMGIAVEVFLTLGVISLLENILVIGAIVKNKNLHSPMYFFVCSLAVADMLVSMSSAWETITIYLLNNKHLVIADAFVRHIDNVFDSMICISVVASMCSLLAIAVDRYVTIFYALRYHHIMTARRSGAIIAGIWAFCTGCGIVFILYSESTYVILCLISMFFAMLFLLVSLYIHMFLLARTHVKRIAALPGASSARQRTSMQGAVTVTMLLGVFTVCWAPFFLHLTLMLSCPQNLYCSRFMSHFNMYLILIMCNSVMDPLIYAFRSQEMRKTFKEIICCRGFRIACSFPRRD
T4 sequence (P41146 whole entry): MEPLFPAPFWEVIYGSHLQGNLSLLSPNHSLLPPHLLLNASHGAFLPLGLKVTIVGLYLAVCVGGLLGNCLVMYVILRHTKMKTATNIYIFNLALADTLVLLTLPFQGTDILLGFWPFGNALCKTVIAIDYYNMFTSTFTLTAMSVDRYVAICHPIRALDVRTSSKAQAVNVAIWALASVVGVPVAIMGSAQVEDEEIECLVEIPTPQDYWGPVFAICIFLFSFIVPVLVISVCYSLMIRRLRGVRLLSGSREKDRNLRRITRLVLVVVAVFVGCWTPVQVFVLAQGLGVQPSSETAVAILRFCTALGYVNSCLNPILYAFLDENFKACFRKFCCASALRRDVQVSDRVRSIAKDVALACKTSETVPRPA
T9 sequence (Q99705 whole entry): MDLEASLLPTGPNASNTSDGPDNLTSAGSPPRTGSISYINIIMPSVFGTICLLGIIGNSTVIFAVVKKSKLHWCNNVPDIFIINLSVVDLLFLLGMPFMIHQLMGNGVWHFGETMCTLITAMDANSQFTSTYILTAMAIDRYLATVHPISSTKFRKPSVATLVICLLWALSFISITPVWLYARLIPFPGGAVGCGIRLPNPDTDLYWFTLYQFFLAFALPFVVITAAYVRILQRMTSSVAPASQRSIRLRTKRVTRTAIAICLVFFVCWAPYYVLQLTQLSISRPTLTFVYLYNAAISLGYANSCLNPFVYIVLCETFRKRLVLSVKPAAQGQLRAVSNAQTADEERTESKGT
T6 sequence (P25103 whole entry): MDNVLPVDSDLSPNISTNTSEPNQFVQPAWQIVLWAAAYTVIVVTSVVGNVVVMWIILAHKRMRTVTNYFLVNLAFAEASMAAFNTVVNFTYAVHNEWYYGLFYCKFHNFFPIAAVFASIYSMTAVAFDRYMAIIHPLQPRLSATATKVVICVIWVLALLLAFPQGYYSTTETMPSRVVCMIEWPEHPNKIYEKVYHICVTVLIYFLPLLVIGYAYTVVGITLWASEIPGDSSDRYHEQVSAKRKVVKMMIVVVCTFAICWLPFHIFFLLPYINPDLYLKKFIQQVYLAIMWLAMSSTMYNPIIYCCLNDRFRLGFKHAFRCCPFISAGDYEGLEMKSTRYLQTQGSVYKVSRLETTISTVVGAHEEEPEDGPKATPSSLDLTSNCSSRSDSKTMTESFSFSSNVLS

| Structure (SMILES) | A4: inhibition of radioligand binding, human melanocortin (MC4) (Human Melanocortin (MC4)) | A3: inhibition of radioligand binding, human melanocortin (MC3) (Human Melanocortin (MC3)) | A11: inhibition of radioligand binding, mouse urotensin (mUR2) (Mouse urotensin (mUR2)) | A10: inhibition of radioligand binding, human opioid (ORL1) (Human opioid (ORL1)) | A9: inhibition of radioligand binding, human neuropeptide Y (NPY-Y1) [1] | A8: inhibition of radioligand binding, human neurokinin (NK1) (Human neurokinin (NK1)) | A5: inhibition of radioligand binding, human melanocortin (MC5) (Human melanocortin (MC5)) | A7: inhibition of radioligand binding, human μ-opioid (MOP) (Human μ-opioid (MOP)) | A6: inhibition of radioligand binding, human melanin-concentrating hormone (MCH1) [2] | A2: inhibition of radioligand binding, human κ-opioid (KOP) (Human κ-Opioid (KOP)) | A1: inhibition of radioligand binding, human δ-opioid (DOP) (Human δ-opioid (DOP)) |
| --- | --- | --- | --- | --- | --- | --- | --- | --- | --- | --- | --- |
| NCCCC(=O)NC1C(OCc2ccccc2)OC(COCc2ccccc2)C(O)C1OCc1ccc(Cl)cc1 (stereo not shown) [compound 373] | + (“+” indicates greater than 50% inhibition at 10 μM) | − (“−” indicates less than 50% inhibition at 10 μM) | − (“−” indicates less than 50% inhibition at 10 μM) | − (“−” indicates less than 50% inhibition at 10 μM) | − (“−” indicates less than 50% inhibition at 10 μM) | + (“+” indicates greater than 50% inhibition at 10 μM) | + (“+” indicates greater than 50% inhibition at 10 μM) | − (“−” indicates less than 50% inhibition at 10 μM) | − (“−” indicates less than 50% inhibition at 10 μM) | − (“−” indicates less than 50% inhibition at 10 μM) | − (“−” indicates less than 50% inhibition at 10 μM) |
| NCCCC(=O)NC1C(OCc2ccccc2)OC(COCc2ccc(Cl)cc2)C(O)C1OCc1ccc(Cl)cc1 (stereo not shown) [compound 374] | + (“+” indicates greater than 50% inhibition at 10 μM) | − (“−” indicates less than 50% inhibition at 10 μM) | − (“−” indicates less than 50% inhibition at 10 μM) | − (“−” indicates less than 50% inhibition at 10 μM) | − (“−” indicates less than 50% inhibition at 10 μM) | + (“+” indicates greater than 50% inhibition at 10 μM) | + (“+” indicates greater than 50% inhibition at 10 μM) | − (“−” indicates less than 50% inhibition at 10 μM) | − (“−” indicates less than 50% inhibition at 10 μM) | − (“−” indicates less than 50% inhibition at 10 μM) | − (“−” indicates less than 50% inhibition at 10 μM) |
| NCCCC(=O)NC1C(OCc2ccccc2)OC(COCc2ccc3ccccc3c2)C(O)C1OCc1ccc2ccccc2c1 (stereo not shown) [compound 375] | + (“+” indicates greater than 50% inhibition at 10 μM) | − (“−” indicates less than 50% inhibition at 10 μM) | − (“−” indicates less than 50% inhibition at 10 μM) | − (“−” indicates less than 50% inhibition at 10 μM) | − (“−” indicates less than 50% inhibition at 10 μM) | + (“+” indicates greater than 50% inhibition at 10 μM) | + (“+” indicates greater than 50% inhibition at 10 μM) | − (“−” indicates less than 50% inhibition at 10 μM) | − (“−” indicates less than 50% inhibition at 10 μM) | − (“−” indicates less than 50% inhibition at 10 μM) | − (“−” indicates less than 50% inhibition at 10 μM) |
| NCCCC(=O)NC1C(OCc2ccccc2)OC(COCc2ccccc2)C(O)C1OCc1ccc2ccccc2c1 (stereo not shown) [compound 376] | + (“+” indicates greater than 50% inhibition at 10 μM) | − (“−” indicates less than 50% inhibition at 10 μM) | − (“−” indicates less than 50% inhibition at 10 μM) | − (“−” indicates less than 50% inhibition at 10 μM) | − (“−” indicates less than 50% inhibition at 10 μM) | + (“+” indicates greater than 50% inhibition at 10 μM) | + (“+” indicates greater than 50% inhibition at 10 μM) | − (“−” indicates less than 50% inhibition at 10 μM) | − (“−” indicates less than 50% inhibition at 10 μM) | − (“−” indicates less than 50% inhibition at 10 μM) | − (“−” indicates less than 50% inhibition at 10 μM) |
| NCCCC(=O)NC1C(OCc2ccccc2)OC(COCc2ccc(Cl)cc2)C(O)C1OCc1ccc2ccccc2c1 (stereo not shown) [compound 377] | + (“+” indicates greater than 50% inhibition at 10 μM) | + (“+” indicates greater than 50% inhibition at 10 μM) | − (“−” indicates less than 50% inhibition at 10 μM) | − (“−” indicates less than 50% inhibition at 10 μM) | − (“−” indicates less than 50% inhibition at 10 μM) | + (“+” indicates greater than 50% inhibition at 10 μM) | + (“+” indicates greater than 50% inhibition at 10 μM) | − (“−” indicates less than 50% inhibition at 10 μM) | − (“−” indicates less than 50% inhibition at 10 μM) | − (“−” indicates less than 50% inhibition at 10 μM) | − (“−” indicates less than 50% inhibition at 10 μM) |
